# Test results from PubChem BioAssay (NCI).
# Values joined by “and” are separate entries in the source; they are usually repeats but may differ in a detail not shown here. Equal values may be shown once.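 In this assay, cells in 96-well plates receive the compound at five concentrations for 48 hours. Endpoints are linearly interpolated between the surrounding concentrations. GI50 is the concentration that inhibits growth by half. TGI: total growth inhibition.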
# How the values were obtained:
# Experiment in all cases: NCI-60 cell line screen, 48 h
# [1] = test system: HL-60(TB) leukemia
# [2] = test system: SW-620 colon
# [3] = test system: RPMI-8226 leukemia
# [4] = test system: RXF 393 renal
# [5] = test system: A549 NSCLC
# [6] = test system: ACHN renal
# [7] = test system: UO-31 renal
# [8] = test system: SF-268 CNS
# [9] = test system: M19-MEL melanoma
# [10] = test system: DMS 114 small cell lung
SMILES,GI50 [1],TGI [1],GI50 [2],TGI [2],GI50 [3],TGI [3],GI50 [4],TGI [4],GI50 [5],TGI [5],GI50 [6],TGI [6],GI50 [7],TGI [7],GI50 [8],TGI [8],TGI [9],TGI [10]
CC1=C(/C=C/C(=O)CC(=O)/C=C/C2=C(C)CCCC2(C)C)C(C)(C)CCC1,5.42 µM,24.2 µM,25.7 µM,> 100 µM,14.9 µM,40.8 µM,4.38 µM,16 µM,34.2 µM,> 100 µM,34.3 µM,> 100 µM,26.8 µM,> 100 µM,18.2 µM,> 100 µM,,
CCOC(=O)C1C=C2O[C@@H]3OC4(CCCCC4)O[C@@H]3C2C2C(=O)CCC(=O)[C@@]12C(=O)OC (stereo partly drawn),,> 100 µM,,> 100 µM,,> 100 µM,,,,> 100 µM,,> 100 µM,,> 100 µM,,> 100 µM,> 100 µM,> 100 µM
O=c1c2cc(Br)cc(Br)c2nc(CCCl)n1-c1ccc(O)c([N+](=O)[O-])c1,,42.9 µM,,36.2 µM,,56.1 µM,,,,31.7 µM,,33.9 µM,,33.9 µM,,37.9 µM,29.8 µM,36.3 µM
Cc1cccc(C)c1NC(=O)CCc1nnc2s/c(=C\c3ccc(N(C)C)cc3)c(=O)n12,,> 100 µM,,> 100 µM,,> 100 µM,,> 100 µM,,> 100 µM,,> 100 µM,,> 100 µM,,> 100 µM,,> 100 µM
CCCCC(C)/C=C/C(=O)C1=C(O)/C(=C/C(=O)O)OC1=O (stereo not drawn),,> 100 µM,,> 100 µM,,> 100 µM,,,,> 100 µM,,> 100 µM,,> 100 µM,,,,> 100 µM
O=C1CC[C@H](N2Cc3c(OCc4ccc(CN5CCOCC5)cc4)cccc3C2=O)C(=O)N1,77.6 µM,> 100 µM,> 100 µM,> 100 µM,> 100 µM,> 100 µM,> 100 µM,> 100 µM,> 100 µM,> 100 µM,> 100 µM,> 100 µM,> 100 µM,> 100 µM,> 100 µM,> 100 µM,,
COCCOCCOCc1n(Cc2ccc3ccccc3c2)c2ccccc2[n+]1Cc1ccc2ccccc2c1,0.115 µM,0.38 µM,0.624 µM,2.2 µM,0.117 µM,1.15 µM,0.318 µM,1.58 µM,1.33 µM,3.84 µM,2.16 µM,5.37 µM,1.83 µM,4.58 µM,0.442 µM,1.68 µM,,
CN1CCN(c2ccc(OC(F)(F)F)c(Nc3ncc4c(n3)-c3c(c(C(N)=O)nn3CCO)CC4)c2)CC1,0.0237 µM and 0.0298 µM,0.0744 µM,0.0273 µM and 0.0316 µM,> 84.3 µM,0.774 µM and 0.324 µM,35 µM and > 10 µM,0.398 µM and 0.102 µM,21 µM and > 10 µM,0.0745 µM and 0.169 µM,16 µM and > 10 µM,0.43 µM and 0.814 µM,20.2 µM and > 10 µM,2.88 µM and 2.28 µM,38.2 µM and > 9.18 µM,0.0661 µM and 0.229 µM,20.3 µM and > 10 µM,,
Cc1ccc(C(=O)NCCCOc2ccc(N3C(N)=NC(N)=NC3(C)C)cc2Cl)cc1S(=O)(=O)F,> 100 µM,> 100 µM,10.2 µM,> 100 µM,24.7 µM,> 100 µM,> 100 µM,> 100 µM,39.5 µM,> 100 µM,> 100 µM,> 100 µM,> 100 µM,> 100 µM,10.7 µM,> 100 µM,,
CCN(CC)c1c(-c2ccccc2)n[nH]c1C(=O)OC,18.7 µM,48.8 µM,26.6 µM,> 100 µM,14.6 µM,38.4 µM,21.9 µM,56.9 µM,31.6 µM,> 100 µM,28.8 µM,74.3 µM,46.5 µM,> 100 µM,22.9 µM,59.7 µM,,
Cc1ccc(S(=O)(=O)OCC#CCOS(=O)(=O)c2ccc(C)cc2)cc1,1.51 µM,3.55 µM,1.8 µM,3.96 µM,1.85 µM,4.42 µM,2.22 µM,5.21 µM,4.85 µM,19.8 µM,2.27 µM,5.94 µM,0.228 µM,0.538 µM,1.79 µM,3.87 µM,,
Nc1ccc(-c2cc(C(=O)Nc3nccs3)[nH]c(=S)n2)cc1,,,,> 100 µM,,> 100 µM,,> 100 µM,,> 100 µM,,> 100 µM,,> 100 µM,,> 100 µM,> 100 µM,> 100 µM
CCOC(=O)Nc1nc2ccccc2[nH]1,2.64 µM and 2.02 µM,6.64 µM and > 20.1 µM,3.9 µM and 3.17 µM,> 100 µM,4.13 µM and 2.26 µM,> 100 µM,3.89 µM,43.6 µM,7.08 µM and 9.89 µM,> 100 µM,6.56 µM,> 100 µM,5.8 µM and 5.34 µM,> 100 µM,> 100 µM,> 100 µM,,
S=c1o[nH]c(-c2ccccc2)c1C=Nc1ccccc1,,> 100 µM,,> 100 µM,,> 100 µM,,> 100 µM,,> 100 µM,,> 100 µM,,> 100 µM,,> 100 µM,,> 100 µM
CC1(C)CCCC2(C)C3C(O)CC2(C)C(O)C31 (stereo not drawn),,,,> 100 µM,,,,> 100 µM,,> 100 µM,,> 100 µM,,> 100 µM,,> 100 µM,> 100 µM,> 100 µM
CCc1cccc(C(C)C)c1NC(=O)CCl,,70.8 µM,,> 100 µM,,> 100 µM,,,,> 100 µM,,> 100 µM,,> 100 µM,,> 100 µM,> 100 µM,
O=C1/C(=C/c2ccc3c(c2)OCCO3)CCC/C1=C\c1ccc2c(c1)OCCO2,,56.9 µM,,> 100 µM,,45.8 µM,,53.5 µM,,> 100 µM,,> 100 µM,,> 100 µM,,> 100 µM,81.9 µM,
OB(O)c1ccccc1C#Cc1ccccc1B(O)O,,> 100 µM,,> 100 µM,,68.8 µM,,36.9 µM,,96.1 µM,,> 100 µM,,60.5 µM,,46.9 µM,,
